The results in this text go back to US8173133B2, “Acyl pseudodipeptides which carry a functionalized auxiliary arm” (OM Pharma, priority 1999, dated 2012).

Converted amounts (≈) assume the structure as drawn. Like-named read-outs stand apart in the source and are kept apart here.

In data set [1] the test system is human peripheral blood mononuclear cells. The data set can be described thus: α TNF production by human peripheral blood mononuclear cells. The note with it: for α TNF produced: 18 hours. Type of data set: cell-based. A digest of the protocol:
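Ficoll-isolated PBMC from 6 healthy donors (2×10^6 viable cells/ml, RPMI-1640, 10% FCS) exposed in triplicate for 18 h at 37 °C, 5% CO2 to compounds diluted 100-, 10- or 1-fold. Secreted TNF-α measured by chemiluminescent ELISA on 4-fold diluted supernatants against a 0.7–7000 pg/ml standard curve; values in pg/ml.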

For data set [2], the system named is murine macrophage cells. Nature of the data set: nitric oxide production by murine macrophage cells (Griess). Type of data set: cell-based, C57/BL6 mice. The note with it: for Max concentration: concentration at maximum amplitude; for EC50 conc: concentration corresponding to 50% of maximum amplitude; for Min concentration: lowest concentration inducing a significant response. Summed up:
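Bone-marrow macrophages from male C57/BL6 mice, differentiated 8 days with L929 supernatant, exposed to serially diluted compound for 22 h at 37 °C. Nitrite in supernatant measured by Griess reaction (562 nm vs 690 nm) against a standard curve. EC50 is concentration giving 50% of maximum amplitude, by line-segment interpolation.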

The test system of data set [3] is CD83, CD86 surface markers of predendritic cells (DC-6). The data set can be described thus: dendritic cell differentiation test: CD83, CD86 surface marker expression. Type of data set: cell-based, human. The note with it: for CD86 % CD / CD86 Fluorescence: 10 μg/ml; for CD86 % CD: products redissolved in pyrogen-free water, % of dendritic cells; for CD86 Fluorescence: mean fluorescence value; for concentration inducing an increase in expression of CD83 and CD86 surface markers: FIGS. 75 & 76. Here is the method: The ability of products of the invention to induce maturation of predendritic cells into dendritic cells was assessed. The following parameters were measured: FITC-Dextran conjugate take-up and expression of CD83, CD86 surface markers.
Mononucleated cells of peripheral blood are isolated from buffy coats of healthy donors. Purified monocytes by adherence selection are resuspended in RPMI-1640 medium containing 10% of foetal calf serum (FCS), GM-CSF and IL-4 (10 ng/ml) at a density of 1×10^6 cells/ml. Cells are divided into Petri Dishes (10×10^6 cells per dish) and cultured for 6 days with a change to fresh medium after 3 days. Cells thus obtained are called predendritic cells (DC-6). Maturation of predendritic cells into mature dendritic cells is achieved by incubating cells with diluted solutions of the products or LPS (positive control) for 3 more days (see product section below). At day 9 (DC-9), cells are harvested and analyzed for different indicators of dendritic cell maturation: assessment of CD83, CD86 surface marker expression as well as of their ability to take up FITC-Dextran conjugate. All these parameters are analyzed by an EPICS-XL-MCL model FACS (Coulter Immunology, Hialeah, […]).
Expression of surface markers is given as % of mean fluorescence of LPS-activated cells (positive control); FITC-Dextran conjugate take-up rate is calculated based on take-up of cells maintained in basic medium and is expressed in %.
Solutions are incubated at 37° C. for 20 minutes, subjected to vigorous stirring during 3 minutes and then diluted to 100 μg/ml in RPMI-1640 culture medium and used in diluted state at concentrations ranging from 10 μg/ml to 0.03 μg/ml. Reference Product: E. coli lipopolysaccharide (LPS, DIFCO, Detroit, Mich., U.S.A.), as a 5 mg/ml stock solution in PBS. An intermediate 100 μg/ml solution is prepared in RPMI 1640 culture medium. Concentrations of dilute solutions being tested range from 1 μg/ml to 0.03 μg/ml.
In another series of experiments, all acyl dipeptide-like compounds were freeze-dried and directly redissolved into pyrogen-free water. Different products as well as LPS control are tested at a concentration of 10 μg/ml. Results are given as % of dendritic cells and mean fluorescence value for dextran phagocytosis or CD86 surface marker expression.

Data set [4] relates to Limulus Amoebocyte Lysate.
[5] abbreviates: 1 EU = 0.08 ng E. coli 055:B5 LPS.
The mark [6] stands for this setting: acyl-dipeptide-like compounds, diluted 0.1 mg/ml solution.

Regarding `CCCCCCCCCCCC(=O)O[C@H](CCCCCCCCCCC)CC(=O)N[C@H](CC(=O)O)C(=O)NCCC[C@H](COC(=O)CCCCCNC(=O)CCC(=O)OC[C@@H]1C=C[C@H](n2cc(C)c(=O)[nH]c2=O)O1)NC(=O)C[C@H](O)CCCCCCCCCCC` [OM-197-MC-AC-Succ-d4T], the “α TNF produced” value in data set [1] (product 1 μg/ml) amounted to 0 pg/mL. Further, the “α TNF produced” value in data set [1] (product 10 μg/ml) is 40 pg/mL. Also, the “α TNF produced” value in data set [1] (product 100 μg/ml) stood at 52 pg/mL. For the same molecule, in data set [2], the Max concentration stood at 12.5 µg/mL, the EC50 conc amounted to 1.15 µg/mL (≈ 0.893 µM) and the Min concentration stood at 0.56 µg/mL. For the same molecule, in data set [3], the “CD86 % CD” value was 25.9% and the “CD86 Fluorescence” value was determined as 2.4. Further, in data set [4] (setting [5]), the “LAL ng of LPS equivalent per mg of product” value (shortened to “LAL ng … per mg of product”) is 0.08 ng of LPS equivalent per mg of product. Also, the “LAL EU/mg of product” value in data set [4] (setting [6]) is given as 1.05 EU/mg of product.
With `CCCCCCCCCCCC(=O)O[C@H](CCCCCCCCCCC)CC(=O)N[C@H](CC(=O)O)C(=O)NCCC[C@H](COC(=O)CCCCCNC(=O)CCC(=O)OC[C@H]1O[C@@H](n2cc(C)c(=O)[nH]c2=O)C[C@@H]1N=[N+]=[N-])NC(=O)C[C@H](O)CCCCCCCCCCC` [OM-197-MC-AC-Succ-AZT], in data set [1] (product 1 μg/ml), the “α TNF produced” value worked out at 108 pg/mL. In addition, in data set [1] (product 10 μg/ml), the “α TNF produced” value came to 224 pg/mL. In addition, in data set [1] (product 100 μg/ml), the “α TNF produced” value came to 64 pg/mL. In data set [2], this molecule registered a Max concentration above 100 µg/mL, an EC50 conc above 74.89 µg/mL and a Min concentration of 55.98 µg/mL. Besides, in data set [3], the “CD86 % CD” value was found to be 81.4% and the “CD86 Fluorescence” value worked out at 6.1. Also, the “LAL ng … per mg of product” value in data set [4] (setting [5]) is 0.11 ng of LPS equivalent per mg of product. In addition, the “LAL EU/mg of product” value in data set [4] (setting [6]) is given as 1.34 EU/mg of product.
With `CCCCCCCCCCCC(=O)O[C@H](CCCCCCCCCCC)CC(=O)N[C@H](CC(=O)NCCCN)C(=O)NCCC[C@H](CO)NC(=O)C[C@H](O)CCCCCCCCCCC` [OM-197-AP, N—[(R)-3-dodecanoyloxytetradecanoyl]-D-aspartic acid, α-N-{(4R)-5-hydroxy-4-[(R)-3-hydroxy-tetradecanoylamino]pentyl}-amide β-N-(3-aminopropyl)amide], in data set [1] (product 1 μg/ml), the “α TNF produced” value was determined as 428 pg/mL. For the same molecule, in data set [1] (product 10 μg/ml), the “α TNF produced” value stood at 116 pg/mL. Besides, in data set [1] (product 100 μg/ml), the “α TNF produced” value was determined as 84 pg/mL. In data set [2], this molecule displayed a Max concentration above 100 µg/mL, an EC50 conc above 13.69 µg/mL and a Min concentration of 1.87 µg/mL. For the same molecule, in data set [3], the “CD86 % CD” value is 62.0% and the “CD86 Fluorescence” value was 4.8. Moreover, in data set [4], the “LAL EU/mg of product” value is <0.5 EU/mg of product and the “LAL ng … per mg of product” value was <0.04 ng of LPS equivalent per mg of product.
As for `CCCCCCCCCCCC(=O)O[C@H](CCCCCCCCCCC)CC(=O)N[C@H](CC(=O)N[C@@H](CCCCN)C(=O)O)C(=O)NCCC[C@H](CO)NC(=O)C[C@H](O)CCCCCCCCCCC` [OM-197-Lys], the “α TNF produced” value in data set [1] (product 1 μg/ml) was found to be 284 pg/mL. In data set [1] (product 10 μg/ml), the “α TNF produced” value was 164 pg/mL. The “α TNF produced” value in data set [1] (product 100 μg/ml) was determined as 20 pg/mL. In data set [2], this molecule gave a Max concentration of 40 µg/mL, an EC50 conc of 2.23 µg/mL (≈ 2.24 µM) and a Min concentration below 0.47 µg/mL. Further, in data set [3], the “CD86 % CD” value came to 21.2% and the “CD86 Fluorescence” value is on record as 2.1. Moreover, in data set [4], the “LAL EU/mg of product” value is listed as 3 EU/mg of product and the “LAL ng … per mg of product” value is on record as 0.24 ng of LPS equivalent per mg of product.
As to `CCCCCCCCCCCC(=O)O[C@H](CCCCCCCCCCC)CC(=O)NC(CCOP(=O)(O)O)C(=O)NCCC[C@H](COC(=O)CCCCCN)NC(=O)C[C@H](O)CCCCCCCCCCC` (mixture of isomers) [OM-197-MP-AC (R/S, R), (3RS,9R)-3-[(R)-3-dodecanoyloxytetradecanoylamino]-4oxo-5-aza-9-[(R)-3-hydroxytetradecanoylamino]-decan-10-ol 1-dihydrogen-phosphate(6-aminohexanoate)], in data set [1] (product 1 μg/ml), the “α TNF produced” value was found to be 244 pg/mL. Besides, in data set [1] (product 10 μg/ml), the “α TNF produced” value was 156 pg/mL. Further, the “α TNF produced” value in data set [1] (product 100 μg/ml) turned out to be 160 pg/mL. In addition, in data set [2], the “nitric oxide production” value is reported as “higher proliferation response as compared to positive control”, the Max concentration is above 100 µg/mL, the EC50 conc is above 10.69 µg/mL and the Min concentration was 1.04 µg/mL. For the same molecule, in data set [3], the “CD86 % CD” value is recorded as 80.0%; the “CD86 Fluorescence” value is given as 6.0; the “concentration inducing an increase in expression of CD83 and CD86 surface markers” value was determined as 0.1 µg/mL. Also, in data set [4], the “LAL EU/mg of product” value is recorded as 0.14 EU/mg of product and the “LAL ng … per mg of product” value is recorded as 0.011 ng of LPS equivalent per mg of product.
With `CCCCCCCCCCCC(=O)O[C@H](CCCCCCCCCCC)CC(=O)N[C@H](CC(=O)N[C@@H](CCCCN)C(=O)O)C(=O)NCCC[C@H](COC(=O)CCCCCN)NC(=O)C[C@H](O)CCCCCCCCCCC` [OM-197-Lys-AC], in data set [1] (product 1 μg/ml), the “α TNF produced” value amounted to 232 pg/mL. In addition, the “α TNF produced” value in data set [1] (product 10 μg/ml) is 184 pg/mL. Besides, the “α TNF produced” value in data set [1] (product 100 μg/ml) was 256 pg/mL. Further, in data set [2], the Max concentration is above 50 µg/mL, the EC50 conc was above 11.06 µg/mL and the Min concentration was found to be 1.46 µg/mL. In addition, in data set [3], the “CD86 % CD” value is 93.5% and the “CD86 Fluorescence” value came to 6.9. Besides, in data set [4], the “LAL EU/mg of product” value is on record as <2.5 EU/mg of product and the “LAL ng … per mg of product” value is recorded as <0.2 ng of LPS equivalent per mg of product.
Take `CCCCCCCCCCCC(=O)O[C@H](CCCCCCCCCCC)CC(=O)N[C@H](CC(=O)O)C(=O)NCCC[C@H](CO)NC(=O)C[C@H](O)CCCCCCCCCCC` [OM-197-MC, N—[(R)-3-dodecanoyloxytetradecanoyl]-D-aspartic acid, α-N-{(4R)-5-hydroxy-4[(R)-3-hydroxytetradecanoylamino]-pentyl}amide]: in data set [1] (only at this concentration), the “concentration at which a significant α TNF production level is induced” value stood at 100 µg/mL. Moreover, in data set [1] (product 1 μg/ml), the “α TNF produced” value came out at 0 pg/mL. The “α TNF produced” value in data set [1] (product 10 μg/ml) was 0 pg/mL. For the same molecule, the “α TNF produced” value in data set [1] (product 100 μg/ml) was 12 pg/mL. In data set [2], this molecule had a Max concentration of 51 µg/mL, an EC50 conc of 1.23 µg/mL (≈ 1.42 µM) and a Min concentration of 0.15 µg/mL. Besides, in data set [3], the “concentration inducing an increase in expression of CD83 and CD86 surface markers” value is given as “at least 1 μg/ml”. Further, in data set [4], the “LAL EU/mg of product” value is on record as 88.6 EU/mg of product and the “LAL ng … per mg of product” value is 7.4 ng of LPS equivalent per mg of product.
Take `CCCCCCCCCCCC(=O)O[C@H](CCCCCCCCCCC)CC(=O)N[C@H](CC(=O)O)C(=O)NCCC[C@H](COC(=O)CCC(=O)O)NC(=O)C[C@H](O)CCCCCCCCCCC` [OM-197-MC-Succ]: the “α TNF produced” value in data set [1] (product 1 μg/ml) came to 0 pg/mL. In addition, the “α TNF produced” value in data set [1] (product 10 μg/ml) came to 96 pg/mL. Further, the “α TNF produced” value in data set [1] (product 100 μg/ml) amounted to 176 pg/mL. In addition, in data set [2], the Max concentration was 16 µg/mL, the EC50 conc worked out at 0.89 µg/mL (≈ 0.919 µM) and the Min concentration amounted to 0.22 µg/mL. In data set [3], the “CD86 % CD” value was found to be 34.9% and the “CD86 Fluorescence” value is reported as 3.0. Further, in data set [4], the “LAL EU/mg of product” value is on record as 5.3 EU/mg of product and the “LAL ng … per mg of product” value is 0.42 ng of LPS equivalent per mg of product.
